These are literature values, as cited in patent publication US5891465A, “Delivery of biologically active material in a liposomal formulation for administration into the mouth” (BioZone Laboratories, Inc., priority 1996, dated 1999).

Structures are written as SMILES.

For data set [1] the following is noted: tablet for absorption through the buccal mucosa.
For data set [2] the following is noted: tablets under the tongue.

For the compound `C[C@]12CCC(=O)C=C1CC[C@@H]1[C@@H]2CC[C@@]2(C)[C@H]1CC[C@]2(C)O` [methyltestosterone], in data set [1], the “androgenic activity relative to oral tablets” value was “twice the androgenic activity”.
`O=[N+]([O-])OCC(CO[N+](=O)[O-])O[N+](=O)[O-]` [nitroglycerin]: the onset result in data set [2] is given as “rapid onset”.
